From the supplement of paper PMC10307832

How the values were obtained:
Test in all cases: relative viability (nuclei count vs DMSO), 5 days (fraction); higher = more cells survive
[1] = compound: CCn1c(-c2nonc2N)nc2cnc(Oc3cccc(NC(=O)c4ccc(OCCN5CCOCC5)cc4)c3)cc21 + COc1cc2c(Oc3ccc(NC(=O)C4(C(=O)Nc5ccc(F)cc5)CC4)cc3F)ccnc2cc1OCCCN1CCOCC1 [Foretinib] (partner 0.25 µM)
How it was run: (§1)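 Values are medians from duplicate plates. Each reflects relative viability, defined as the nuclei count of treated wells over that of vehicle wells. Lung cancer cell lines in 1536-well plates were pin-tool dosed one day after seeding with one drug alone or with a fixed anchor-drug dose plus five library-drug doses (not always all listed) in √10 steps, then fixed, stained and imaged at 4× after 5 days.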

[2] = compound: CCC1=CN=CN=C1N2CCN(CC2)CC3=NC4=C(N3)C=C(C=C4)C(F)(F)F + COc1cc2c(Oc3ccc(NC(=O)C4(C(=O)Nc5ccc(F)cc5)CC4)cc3F)ccnc2cc1OCCCN1CCOCC1 [Foretinib] (partner 0.25 µM)
How it was run: as §1

Mirin + Luminespib = compound: N=C1NC(=O)/C(=C/c2ccc(O)cc2)S1 [Mirin] + CCNC(=O)c1noc(-c2cc(C(C)C)c(O)cc2O)c1-c1ccc(CN2CCOCC2)cc1 [Luminespib] (partner 0.01 µM)
How it was run: as §1

Mirin + Bortezomib = compound: N=C1NC(=O)/C(=C/c2ccc(O)cc2)S1 [Mirin] + CC(C)C[C@H](NC(=O)[C@H](Cc1ccccc1)NC(=O)c1cnccn1)B(O)O [Bortezomib] (partner 0.002 µM)
How it was run: as §1

| Cell Line | relative viability ([1]; first compound 0.04 µM) | relative viability ([1]; first compound 0.1265 µM) | relative viability ([1]; first compound 0.4 µM) | relative viability ([1]; first compound 1.265 µM) | relative viability ([1]; first compound 4 µM) | relative viability ([2]; first compound 0.04 µM) | relative viability ([2]; first compound 0.1265 µM) | relative viability ([2]; first compound 0.4 µM) | relative viability ([2]; first compound 1.265 µM) | relative viability ([2]; first compound 4 µM) | relative viability (Mirin + Luminespib; first compound 0.25 µM) | relative viability (Mirin + Luminespib; first compound 2.5 µM) | relative viability (Mirin + Luminespib; first compound 7.906 µM) | relative viability (Mirin + Luminespib; first compound 25 µM) | relative viability (Mirin + Luminespib; first compound 0.7906 µM) | relative viability (Mirin + Bortezomib; first compound 0.25 µM) | relative viability (Mirin + Bortezomib; first compound 0.7906 µM) | relative viability (Mirin + Bortezomib; first compound 2.5 µM) | relative viability (Mirin + Bortezomib; first compound 7.906 µM) | relative viability (Mirin + Bortezomib; first compound 25 µM) |
| --- | --- | --- | --- | --- | --- | --- | --- | --- | --- | --- | --- | --- | --- | --- | --- | --- | --- | --- | --- | --- |
| LK-2 | 1.23 | 1.19 | 1.28 | 1.26 | 1.28 | 1.29 | 1.41 | 1.09 | 1.12 | 0.743 | 0.148 | 0.19 | 0.153 | 0.133 | – | – | – | – | – | – |
| SK-MES-1 | 1.03 | 0.645 | 0.502 | 0.674 | 0.638 | 0.917 | 0.925 | 0.909 | 0.829 | 0.882 | 0.869 | 0.88 | 0.919 | 0.7 | 0.915 | – | – | – | – | – |
| NCI-H1793 | 0.712 | 0.572 | 0.734 | 0.76 | 0.725 | 0.7 | 0.771 | 0.568 | – | 0.669 | 0.572 | 0.235 | 0.196 | 0.171 | – | – | – | – | – | – |
| IA-LM | 1.65 | 1.39 | 1.13 | 1.06 | 0.898 | 1.11 | 0.943 | 1.02 | 1.1 | 1.22 | – | – | – | – | – | 0.687 | 0.961 | 0.757 | 0.632 | 0.845 |
| A549 | 1.19 | 0.985 | 1.06 | 0.246 | 0.12 | 0.851 | 0.903 | 0.937 | 0.816 | 0.905 | – | – | – | – | – | – | – | – | – | – |
| NCI-H358 | 0.886 | 0.653 | 0.775 | 0.396 | 0.44 | 0.746 | 0.626 | 0.686 | 0.509 | 0.651 | 0.562 | 0.502 | 0.36 | 0.413 | 0.408 | – | – | – | – | – |
